Reference: patent US20130317116A1, “EXTERNAL SKIN PREPARATION” (JX NIPPON OIL & ENERGY CORPORATION, priority 2011, published 2013)

Test: Singlet oxygen quenching activity of carotenoids by the ESR method
Type: physicochemical
Conditions: for ESR signal intensity / ESR signal intensity Mean: carotenoid 2.5 mM, lower intensity = more effective quenching; for ESR signal intensity: hematoporphyrin + UVA, TMPD spin trap; for ESR signal intensity Mean: mean of three independent experiments, control 3.20; for singlet oxygen quenching activity compared with astaxanthin: ESR method, Table 3 and FIG. 1
Description: Crosslinking of dermal collagen by singlet oxygen is one reason for wrinkle formation caused by photoaging (Non-Patent Document 1). If the external skin preparation according to the present invention can quench singlet oxygen, specifically, changes in collagen as observed on the photoaged skin can be inhibited, and anti-aging effects can be exerted. Accordingly, pharmacological evaluation of the external skin preparation according to the present invention in respect of improvement and prevention of wrinkle formation can be performed using the singlet oxygen quenching capacity as the indicator. For example, pharmacological evaluation of the external skin preparation according to the present invention can be performed by determining whether or not the external skin preparation according to the present invention has sufficient singlet oxygen quenching capacity by the electron spin resonance (ESR) method that is employed for evaluation of the singlet oxygen quenching activity.
Evaluation was carried out by the ESR method using an ESR apparatus (JEOLJES-FR30, JEOL Ltd.). The method of evaluation is described below.
50 μl of 250 mM spin trap agent, 50 μl of an aqueous solution of 2,2,6,6-tetramethyl-4-piperidione (TMPD), and 50 μl of an acetone solution of 10 mM carotenoid were added to 50 μl of 100 mM phosphate buffer (pH 7.4), these components were thoroughly mixed, 50 μl of an aqueous solution of 0.25 mM hematoporphyrin was added thereto as a singlet oxygen generator, and the resultant was irradiated with ultraviolet A (UVA) to generate singlet oxygen.
Subsequently, ESR signals based on stable nitroxyl radicals (4-oxo-TEMPO) generated upon the reaction between singlet oxygen and TMPD in the reaction solution were measured.
No antioxidant was applied to a control group. The results are the mean and the standard deviations of three independent experiments.

[1] = first of three independent experiments
[2] = second value column of three independent experiments
[3] = third value column of three independent experiments

Row | SMILES | ESR signal intensity [1] | ESR signal intensity [2] | ESR signal intensity [3] | ESR signal intensity Mean | singlet oxygen quenching activity compared with astaxanthin
1 | CC1=C(/C=C/C(C)=C/C=C/C(C)=C/C=C/C=C(C)/C=C/C=C(C)/C=C/C2=C(C)C(=O)[C@@H](O)CC2(C)C)C(C)(C)C[C@H](O)C1=O [Astaxanthin, astaxanthin, reference compound] | 2.00 | 2.33 | 2.72 | 2.35 | 
2 | CC1=C(/C=C/C(C)=C/C=C/C(C)=C/C=C/C=C(C)/C=C/C=C(C)/C=C/C2=C(C)C(=O)[C@@H](O)CC2(C)C)C(C)(C)CCC1=O [Adonirubin, adonirubin] | 0.79 | 1.13 | 1.11 | 1.01 | significantly higher than that of astaxanthin
3 | CC1=C(/C=C/C(C)=C/C=C/C(C)=C/C=C/C=C(C)/C=C/C=C(C)/C=C/C2=C(C)C(=O)[C@@H](O)CC2(C)C)C(C)(C)C[C@H](O)C1 [Adonixanthin, adonixanthin] | 0.74 | 0.97 | 0.72 | 0.81 | significantly higher than that of astaxanthin
